Results as given in US10703764B2, “Benzopiperazine compositions as BET bromodomain inhibitors” (FORMA Therapeutics, Inc., priority 2013, dated 2020).

Legend:
BRD4 BD2 = target: T1, BRD4 BD2 (Homo sapiens, UniProt O60885); experiment: AlphaScreen binding assay, BRD4 Bromodomain 2
T1 construct: made in house
Protocol: (§1) The binding of Example compounds to BRD4 Bromodomain 1 and BRD4 Bromodomain 2 was assessed using 384-well AlphaScreen assay technology. His-epitope tagged BRD4 BD144-168 and BRD4 BD2333-460 were cloned, expressed, and purified to homogeneity. BRD4 BD1 and BRD4 BD2 binding and inhibition was assessed by monitoring the engagement of biotinylated Histone H4 (1-21) K5/8/12/16 tetra-acetylated peptide with the targets using the AlphaScreen technology (PerkinElmer). Specifically, in a 384-well black or white flat bottom plate, BRD4 BD1 (50 nM final) or BRD4 BD2 (100 nM final) was combined with peptide (50 nM final for BD1 or 100 nM final for BD2) in 50 mM HEPES (pH 7.3), 100 mM NaCl, 0.1% (w/v) BSA, and 0.01% (w/v) Triton X-100 either in the presence of DMSO (final 1.25% DMSO) or compound dilution series in DMSO. Alpha streptavidin donor beads and Nickel-chelate acceptor beads were added to a final concentration of 10 μg/ml each. After a minimum of 1 hour equilibration, plates were read on a BMG PHERAstar FS multi-label reader (BMG LabTech). The half maximal inhibitory concentration (IC50) values were calculated using IDBS Activity Base software with a four parameter logistic curve fit by the equation y=A+((B−A)/(1+((C/x)^D))), wherein A denotes the bottom plateau of the curve, B denotes the top plateau of the curve, C denotes the x value at the middle of the curve, D denotes the slope factor, x denotes the original known x values, and y denotes the original known y values. Data was fitted using the Levenburg Marquardt algorithm.

BRD4 BD1 = target: T2, BRD4 BD1 (Homo sapiens, UniProt O60885); experiment: AlphaScreen binding assay, BRD4 Bromodomain 1
T2 construct: made in house
Protocol: as §1

SMILES | IC50 (BRD4 BD2) | IC50 (BRD4 BD1)
COC(=O)N1C[C@H](C)N(C(C)=O)c2ccc(-c3ccc(S(C)(=O)=O)cc3)cc21 [Example I-235] | 50 to 500 nM | 1000 to 10000 nM
C#CCOC(=O)N1C[C@H](C)N(C(C)=O)c2ccc(-c3ccc(S(C)(=O)=O)cc3)cc21 [Example I-240] | 50 to 500 nM | 1000 to 10000 nM
CC(=O)N1C[C@H](C)N(C(C)=O)c2ccc(-c3ccc(S(C)(=O)=O)cc3)cc21 [Example I-241] | 50 to 500 nM | 1000 to 10000 nM
CC(=O)N1c2ccc(-c3ccc(S(C)(=O)=O)cc3)cc2N(C(=O)C(C)C)C[C@@H]1C [Example I-242] | > 500 nM | > 10000 nM
CC(=O)N1c2ccc(-c3ccc(S(C)(=O)=O)cc3)cc2N(C(=O)C(C)(C)C)C[C@@H]1C [Example I-243] | > 500 nM | > 10000 nM
CC(=O)N1c2ccc(-c3ccc(S(C)(=O)=O)cc3)cc2N(C(=O)C2CCCC2)C[C@@H]1C [Example I-244] | 50 to 500 nM | 1000 to 10000 nM
CC(=O)N1c2ccc(-c3ccc(S(C)(=O)=O)cc3)cc2N(C(=O)CC2CCCC2)C[C@@H]1C [Example I-246] | 50 to 500 nM | 1000 to 10000 nM
CC(=O)N1c2ccc(-c3ccc(S(C)(=O)=O)cc3)cc2N(C(=O)CC#N)C[C@@H]1C [Example I-247] | > 500 nM | > 10000 nM
CC(=O)N1c2ccc(-c3ccc(S(C)(=O)=O)cc3)cc2N(C(=O)N(C)C)C[C@@H]1C [Example I-248] | 50 to 500 nM | > 10000 nM
COCCOC(=O)N1C[C@H](C)N(C(C)=O)c2ccc(-c3ccc(S(C)(=O)=O)cc3)cc21 [Example I-249] | > 500 nM | 1000 to 10000 nM
CNC(=O)N1C[C@H](C)N(C(C)=O)c2ccc(-c3ccc(S(C)(=O)=O)cc3)cc21 [Example I-253] | > 500 nM | > 10000 nM
CC(=O)N1c2ccc(-c3ccc(S(C)(=O)=O)cc3)nc2N(C(=O)OC(C)C)C[C@@H]1C [Example I-254] | > 500 nM | 1000 to 10000 nM
CC(=O)N1c2ccc(-c3cnn(C4CC4)c3)nc2N(C(=O)OC(C)C)C[C@@H]1C [Example I-255] | 50 to 500 nM | 1000 to 10000 nM
CC(=O)N1c2ccc(-c3cnn(C)c3C)cc2N(C(=O)c2ccco2)C[C@@H]1C [Example I-270] | 50 to 500 nM | 1000 to 10000 nM
CC(=O)N1c2ncc(-c3ccc(S(C)(=O)=O)cc3)cc2N(C(=O)c2ccco2)C[C@@H]1C [Example I-271] | 50 to 500 nM | 1000 to 10000 nM
CC(=O)N1c2ncc(-c3ccc(C(=O)N(C)C)cc3)cc2N(C(=O)c2ccco2)C[C@@H]1C [Example I-272] | 50 to 500 nM | 1000 to 10000 nM
CCCn1cc(-c2cnc3c(c2)N(C(=O)c2ccco2)C[C@H](C)N3C(C)=O)cn1 [Example I-273] | > 500 nM | 1000 to 10000 nM
CC(=O)N1c2ccc(-c3cnc(N)nc3)cc2N(C(=O)c2ccco2)C[C@@H]1C [Example I-296] | 50 to 500 nM | 1000 to 10000 nM
CC(=O)N1c2ccc(-c3ccc(S(C)(=O)=O)cc3)cc2N(C(=O)OC(C)C)C[C@H]1C [Example I-297] | > 500 nM | > 10000 nM
CC(=O)N1c2ccc(-c3ccc(N4CCCC4)cc3)cc2N(C(=O)c2ccco2)C[C@@H]1C [Example I-298] | 50 to 500 nM | 1000 to 10000 nM
CC(=O)N1c2ccc(-c3ccc(S(C)(=O)=O)cc3)nc2N(C(=O)c2ccco2)C[C@@H]1C [Example I-300] | 50 to 500 nM | 1000 to 10000 nM
CC(=O)N1c2ccc(-c3ccc(S(C)(=O)=O)cc3)nc2N(C(=O)C2CC2)C[C@@H]1C [Example I-301] | > 500 nM | 1000 to 10000 nM
CC(C)OC(=O)N1C[C@H](C)N(C(=O)C2CC2)c2ccc(-c3cnn(CC(=O)N(C)C)c3)cc21 [Example I-311] | 50 to 500 nM | 1000 to 10000 nM
CC(=O)N1c2ccc(-c3c(C)n[nH]c3C)cc2N(C(=O)OC(C)C)CC1C (stereo not shown) [Example I-333] | > 500 nM | 1000 to 10000 nM

SMILES | IC50 (BRD4 BD2) | IC50 (BRD4 BD1)
CC(=O)N1c2ccc(-c3cnn(-c4ccccc4)c3)cc2N(C(=O)OC(C)C)C[C@@H]1C [Example I-334] | > 500 nM | 1000 to 10000 nM
CC(=O)N1c2ccc(-c3c[nH]nc3C(F)(F)F)cc2N(C(=O)OC(C)C)CC1C (stereo not shown) [Example I-335] | > 500 nM | 1000 to 10000 nM
CC(=O)N1c2ccc(-c3cnn(C)c3C)cc2N(C(=O)OC(C)C)C[C@@H]1C [Example I-339] | 50 to 500 nM | 1000 to 10000 nM
CC(C)OC(=O)N1C[C@H](C)N(C(=O)C2CC2)c2ccc(-c3cnn(CC(=O)O)c3)cc21 [Example I-340] | > 500 nM | 1000 to 10000 nM
COC(=O)N1c2ccc(-c3cnn(CC(=O)O)c3)cc2N(C(=O)OC(C)C)C[C@@H]1C [Example I-341] | 50 to 500 nM | 1000 to 10000 nM
CC(=O)N1c2ccc(-c3cnn(CCO)c3)cc2N(C(=O)C2CC2)C[C@@H]1C [Example I-342] | 50 to 500 nM | 1000 to 10000 nM
CC(=O)N1c2ccc(-c3cnn(CC(C)(C)O)c3)cc2N(C(=O)C2CC2)C[C@@H]1C [Example I-343] | 50 to 500 nM | 1000 to 10000 nM
CC(=O)N1c2ccc(-c3cnn(CCS(C)(=O)=O)c3)cc2N(C(=O)C2CC2)CC1C (stereo not shown) [Example I-344] | 50 to 500 nM | 1000 to 10000 nM
CC(C)OC(=O)N1C[C@H](C)N(C(C)C2CC2)c2ccc(-c3cnn(C4CNC4)c3)cc21 (stereo partly shown) [Example I-357] | 50 to 500 nM | 1000 to 10000 nM
COC(=O)N1c2ccc(-c3cnn(C4CNC4)c3)cc2N(C(=O)OC(C)C)C[C@@H]1C [Example I-358] | 50 to 500 nM | 1000 to 10000 nM
C[C@H]1CN(C(=O)c2ccco2)c2cc(-c3ccc(S(C)(=O)=O)cc3)ccc2N1C(=O)C(F)(F)F [Example I-361] | > 500 nM | > 10000 nM
C[C@H]1CN(C(=O)c2ccco2)c2cc(-c3ccc(C(=O)N(C)C)cc3)ccc2N1C(=O)C(F)(F)F [Example I-362] | > 500 nM | > 10000 nM
CCCn1cc(-c2ccc3c(c2)N(C(=O)c2ccco2)C[C@H](C)N3C(=O)C(F)(F)F)cn1 [Example I-363] | 50 to 500 nM | 1000 to 10000 nM
C[C@H]1CN(C(=O)c2ccco2)c2cc(-c3ccc(S(C)(=O)=O)cc3)ccc2N1C(=O)CO [Example I-367] | > 500 nM | > 10000 nM
COCC(=O)N1c2ccc(-c3ccc(S(C)(=O)=O)cc3)cc2N(C(=O)c2ccco2)C[C@@H]1C [Example I-368] | > 500 nM | > 10000 nM
C[C@H]1CN(C(=O)c2ccco2)c2cc(-c3ccc(S(C)(=O)=O)cc3)ccc2N1C(=O)N(C)C [Example I-369] | > 500 nM | > 10000 nM
CC(C)C(=O)N1c2ccc(-c3ccc(S(C)(=O)=O)cc3)cc2N(C(=O)c2ccco2)C[C@@H]1C [Example I-370] | > 500 nM | > 10000 nM
CCOC(=O)N1c2ccc(-c3ccc(S(C)(=O)=O)cc3)cc2N(C(=O)c2ccco2)C[C@@H]1C [Example I-371] | > 500 nM | > 10000 nM
CC(C)OC(=O)N1c2ccc(-c3ccc(S(C)(=O)=O)cc3)cc2N(C(=O)c2ccco2)C[C@@H]1C [Example I-372] | > 500 nM | > 10000 nM
C[C@H]1CN(C(=O)c2ccco2)c2cc(-c3ccc(S(C)(=O)=O)cc3)ccc2N1C(=O)C1CCCC1 [Example I-373] | > 500 nM | > 10000 nM
C[C@H]1CN(C(=O)c2ccco2)c2cc(-c3ccc(S(C)(=O)=O)cc3)ccc2N1C(=O)C1CCC1 [Example I-374] | > 500 nM | 1000 to 10000 nM
C[C@H]1CN(C(=O)c2ccco2)c2cc(-c3ccc(S(C)(=O)=O)cc3)ccc2N1C(=O)c1ccno1 [Example I-375] | > 500 nM | > 10000 nM
C[C@H]1CN(C(=O)c2ccco2)c2cc(-c3ccc(S(C)(=O)=O)cc3)ccc2N1C(=O)N1CCCC1 [Example I-376] | > 500 nM | > 10000 nM
